Measurements published in patent US12290651B2, “Devices and methods for the treatment of body surface disorders” (Verrica Pharmaceuticals Inc., priority 2017, dated 2025).
“And” between values parts separate entries of the source, which are not always exact repeats. Equal values may be shown once.

Assay: Pharmacokinetic results from Phase II clinical trial: systemic exposure (plasma cantharidin) after topical application (Example 3)
Assay type: in vivo, human
Procedure: This example describes pharmacokinetic results from a Phase II clinical trial for the treatment of skin lesion resulting from Molluscum contagiosum. Patients received administrations of the cantharidin composition in Table 2 to Molluscum contagiosum lesions every 21 days for a maximum of 4 sessions or until complete clearance. Blood samples for systemic exposure evaluation were collected on Day 1, prior to the drug application, and 2 (±30 minutes), 6 (±1 hour) and 24 (±3 hours) hours post-application. The average age of the subjects was 7±3.5 years. The average body weight of the subjects was 58±34.6 lb. The average number of lesions per subject was 43.7±24.2.

SMILES: C[C@@]12C(=O)OC(=O)[C@]1(C)[C@H]1CC[C@@H]2O1 [cantharidin]
- plasma concentration of cantharidin (all subjects, all times sampled (2, 6, 24 hours post-application)): less than 3.3 ng/ml
- Exposure (plasma concentration of cantharidin) (one line per subject, topical cantharidin composition of Table 2 on molluscum lesions, blood at 2, 6 and 24 hours post-application on Day 1, LLOQ 2.5 ng/ml): <2.5 ng/ml (16×) and 3.3 ng/ml
- subjects with plasma concentration of cantharidin above the lower limit of quantification (2.5 ng/ml) (seventeen subjects): Only one of the seventeen subjects
- plasma concentration of cantharidin (subjects as young as 2 years old, having over 100 lesions, having genital lesions, with as many as 2.26 lesions per lb: below LLOQ): < 2.5 ng/mL
